Source: ChEMBL document CHEMBL4613209, “Quinolone hybrids and their anti-cancer activities: An overview” (Eur J Med Chem, 2019)

Target: RAC-alpha serine/threonine-protein kinase (Homo sapiens, UniProt P31749)
Assay: Inhibition of PKBalpha (unknown origin)

Chain of RAC-alpha serine/threonine-protein kinase (P31749 whole entry): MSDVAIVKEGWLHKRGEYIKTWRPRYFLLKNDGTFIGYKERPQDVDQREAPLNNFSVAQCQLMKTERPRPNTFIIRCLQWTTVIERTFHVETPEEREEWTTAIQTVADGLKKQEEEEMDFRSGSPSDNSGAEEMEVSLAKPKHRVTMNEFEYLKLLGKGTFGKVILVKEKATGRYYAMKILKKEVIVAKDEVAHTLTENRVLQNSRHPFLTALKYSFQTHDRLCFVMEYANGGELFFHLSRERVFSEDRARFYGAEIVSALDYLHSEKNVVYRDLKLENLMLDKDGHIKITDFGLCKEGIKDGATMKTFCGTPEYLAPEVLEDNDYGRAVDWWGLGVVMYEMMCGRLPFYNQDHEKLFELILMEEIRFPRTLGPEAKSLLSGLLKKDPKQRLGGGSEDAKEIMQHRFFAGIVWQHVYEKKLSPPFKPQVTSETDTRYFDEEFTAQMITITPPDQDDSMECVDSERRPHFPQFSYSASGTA

| SMILES | IC50 [µM] |
| --- | --- |
| O=C(/C=C/c1nc2ccccc2[nH]1)c1c(-c2ccccc2)c2cc(Br)ccc2[nH]c1=O | 1.64 to 44.5 |
| Cc1ccc2[nH]c(/C=C/C(=O)c3c(-c4ccccc4)c4cc(Cl)ccc4[nH]c3=O)nc2c1 | 1.64 to 44.5 |
| O=C(/C=C/c1nc2cc(F)ccc2[nH]1)c1c(-c2ccc(F)cc2)c2cc(F)ccc2[nH]c1=O | 1.64 to 44.5 |
| Cc1ccc2[nH]c(=O)c(C(=O)/C=C/c3nc4ccccc4[nH]3)c(-c3ccccc3)c2c1 | 1.64 to 44.5 |
| O=C(/C=C/c1nc2cc(F)ccc2[nH]1)c1c(-c2ccccc2)c2cc(Cl)ccc2[nH]c1=O | 1.64 to 44.5 |
| O=C(/C=C/c1nc2cc(F)c(F)cc2[nH]1)c1c(-c2ccc(F)cc2)c2cc(F)ccc2[nH]c1=O | 1.64 to 44.5 |
| Cn1c(=O)c(C(=O)/C=C/c2nc3cc(F)ccc3[nH]2)c(-c2ccccc2)c2cc(Cl)ccc21 | 1.64 to 44.5 |

Target: RAC-beta serine/threonine-protein kinase (Homo sapiens, UniProt P31751)
Sequence (P31751 whole entry): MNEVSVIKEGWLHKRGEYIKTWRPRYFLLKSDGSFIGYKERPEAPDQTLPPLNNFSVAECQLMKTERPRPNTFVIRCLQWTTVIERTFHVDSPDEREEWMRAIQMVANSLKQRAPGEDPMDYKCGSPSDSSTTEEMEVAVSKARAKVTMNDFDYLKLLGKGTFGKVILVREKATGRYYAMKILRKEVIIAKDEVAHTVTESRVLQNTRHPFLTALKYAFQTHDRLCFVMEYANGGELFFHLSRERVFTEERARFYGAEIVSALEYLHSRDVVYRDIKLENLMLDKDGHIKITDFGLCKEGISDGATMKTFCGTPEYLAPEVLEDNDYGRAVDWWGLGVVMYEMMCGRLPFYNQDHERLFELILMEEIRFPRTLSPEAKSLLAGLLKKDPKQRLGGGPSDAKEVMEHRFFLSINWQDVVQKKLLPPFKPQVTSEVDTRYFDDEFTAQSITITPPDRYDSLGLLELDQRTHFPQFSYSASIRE
Assay: Inhibition of PKBbeta (unknown origin)

| SMILES | IC50 [µM] |
| --- | --- |
| O=C(/C=C/c1nc2ccccc2[nH]1)c1c(-c2ccccc2)c2cc(Br)ccc2[nH]c1=O | 1.64 to 44.5 |
| Cc1ccc2[nH]c(/C=C/C(=O)c3c(-c4ccccc4)c4cc(Cl)ccc4[nH]c3=O)nc2c1 | 1.64 to 44.5 |
| O=C(/C=C/c1nc2cc(F)ccc2[nH]1)c1c(-c2ccc(F)cc2)c2cc(F)ccc2[nH]c1=O | 1.64 to 44.5 |
| Cc1ccc2[nH]c(=O)c(C(=O)/C=C/c3nc4ccccc4[nH]3)c(-c3ccccc3)c2c1 | 1.64 to 44.5 |
| O=C(/C=C/c1nc2cc(F)ccc2[nH]1)c1c(-c2ccccc2)c2cc(Cl)ccc2[nH]c1=O | 1.64 to 44.5 |
| O=C(/C=C/c1nc2cc(F)c(F)cc2[nH]1)c1c(-c2ccc(F)cc2)c2cc(F)ccc2[nH]c1=O | 1.64 to 44.5 |
| Cn1c(=O)c(C(=O)/C=C/c2nc3cc(F)ccc3[nH]2)c(-c2ccccc2)c2cc(Cl)ccc21 | 1.64 to 44.5 |

Target: RAC-gamma serine/threonine-protein kinase (Homo sapiens, UniProt Q9Y243)
Sequence (Q9Y243 whole entry): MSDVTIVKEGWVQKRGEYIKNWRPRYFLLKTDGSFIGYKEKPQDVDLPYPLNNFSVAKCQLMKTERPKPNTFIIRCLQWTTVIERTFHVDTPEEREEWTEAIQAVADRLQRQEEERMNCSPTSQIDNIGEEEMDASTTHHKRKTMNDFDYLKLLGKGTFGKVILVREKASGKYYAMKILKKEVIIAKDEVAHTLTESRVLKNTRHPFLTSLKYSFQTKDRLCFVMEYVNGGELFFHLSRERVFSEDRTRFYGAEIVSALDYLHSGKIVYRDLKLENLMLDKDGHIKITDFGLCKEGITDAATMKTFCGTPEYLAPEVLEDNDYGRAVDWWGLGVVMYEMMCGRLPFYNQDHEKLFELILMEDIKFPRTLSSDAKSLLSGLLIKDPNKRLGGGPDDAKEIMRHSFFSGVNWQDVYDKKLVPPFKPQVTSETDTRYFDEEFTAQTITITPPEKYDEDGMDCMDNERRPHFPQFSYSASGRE
Assay: Inhibition of PKBgamma (unknown origin)

| SMILES | IC50 [µM] |
| --- | --- |
| O=C(/C=C/c1nc2ccccc2[nH]1)c1c(-c2ccccc2)c2cc(Br)ccc2[nH]c1=O | 1.64 to 44.5 |
| Cc1ccc2[nH]c(/C=C/C(=O)c3c(-c4ccccc4)c4cc(Cl)ccc4[nH]c3=O)nc2c1 | 1.64 to 44.5 |
| O=C(/C=C/c1nc2cc(F)ccc2[nH]1)c1c(-c2ccc(F)cc2)c2cc(F)ccc2[nH]c1=O | 1.64 to 44.5 |
| Cc1ccc2[nH]c(=O)c(C(=O)/C=C/c3nc4ccccc4[nH]3)c(-c3ccccc3)c2c1 | 1.64 to 44.5 |
| O=C(/C=C/c1nc2cc(F)ccc2[nH]1)c1c(-c2ccccc2)c2cc(Cl)ccc2[nH]c1=O | 1.64 to 44.5 |
| O=C(/C=C/c1nc2cc(F)c(F)cc2[nH]1)c1c(-c2ccc(F)cc2)c2cc(F)ccc2[nH]c1=O | 1.64 to 44.5 |
| Cn1c(=O)c(C(=O)/C=C/c2nc3cc(F)ccc3[nH]2)c(-c2ccccc2)c2cc(Cl)ccc21 | 1.64 to 44.5 |

Target: T1, Inhibitor of nuclear factor kappa-B kinase subunit alpha (Homo sapiens, UniProt O15111)
T1 sequence (O15111 whole entry): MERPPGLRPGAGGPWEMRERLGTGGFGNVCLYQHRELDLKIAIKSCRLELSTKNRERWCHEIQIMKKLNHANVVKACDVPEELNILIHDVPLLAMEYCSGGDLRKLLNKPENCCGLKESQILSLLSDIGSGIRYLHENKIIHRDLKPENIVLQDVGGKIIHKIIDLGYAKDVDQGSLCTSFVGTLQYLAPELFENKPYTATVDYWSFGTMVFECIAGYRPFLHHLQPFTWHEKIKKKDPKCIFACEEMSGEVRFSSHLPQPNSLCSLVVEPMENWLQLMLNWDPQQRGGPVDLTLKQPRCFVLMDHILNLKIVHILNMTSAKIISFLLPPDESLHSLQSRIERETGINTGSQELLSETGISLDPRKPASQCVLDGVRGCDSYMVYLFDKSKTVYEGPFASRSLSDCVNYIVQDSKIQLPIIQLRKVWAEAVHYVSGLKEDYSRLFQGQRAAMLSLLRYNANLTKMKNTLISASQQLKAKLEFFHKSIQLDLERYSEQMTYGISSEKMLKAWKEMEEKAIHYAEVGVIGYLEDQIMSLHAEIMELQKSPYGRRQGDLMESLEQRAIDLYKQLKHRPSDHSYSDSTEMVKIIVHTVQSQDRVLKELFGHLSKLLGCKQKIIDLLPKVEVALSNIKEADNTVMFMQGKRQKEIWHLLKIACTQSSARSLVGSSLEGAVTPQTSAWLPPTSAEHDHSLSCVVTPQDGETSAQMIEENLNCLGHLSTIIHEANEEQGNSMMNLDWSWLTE
Assay: Inhibition of IKKalpha (unknown origin)

| SMILES | IC50 [µM] |
| --- | --- |
| O=C(/C=C/c1nc2ccccc2[nH]1)c1c(-c2ccccc2)c2cc(Br)ccc2[nH]c1=O | 1.64 to 44.5 |
| Cc1ccc2[nH]c(/C=C/C(=O)c3c(-c4ccccc4)c4cc(Cl)ccc4[nH]c3=O)nc2c1 | 1.64 to 44.5 |
| O=C(/C=C/c1nc2cc(F)ccc2[nH]1)c1c(-c2ccc(F)cc2)c2cc(F)ccc2[nH]c1=O | 1.64 to 44.5 |
| Cc1ccc2[nH]c(=O)c(C(=O)/C=C/c3nc4ccccc4[nH]3)c(-c3ccccc3)c2c1 | 1.64 to 44.5 |
| O=C(/C=C/c1nc2cc(F)ccc2[nH]1)c1c(-c2ccccc2)c2cc(Cl)ccc2[nH]c1=O | 1.64 to 44.5 |
| O=C(/C=C/c1nc2cc(F)c(F)cc2[nH]1)c1c(-c2ccc(F)cc2)c2cc(F)ccc2[nH]c1=O | 1.64 to 44.5 |
| Cn1c(=O)c(C(=O)/C=C/c2nc3cc(F)ccc3[nH]2)c(-c2ccccc2)c2cc(Cl)ccc21 | 1.64 to 44.5 |

Target: T2, Inhibitor of nuclear factor kappa-B kinase subunit beta (Homo sapiens, UniProt O14920)
T2 sequence (O14920 whole entry): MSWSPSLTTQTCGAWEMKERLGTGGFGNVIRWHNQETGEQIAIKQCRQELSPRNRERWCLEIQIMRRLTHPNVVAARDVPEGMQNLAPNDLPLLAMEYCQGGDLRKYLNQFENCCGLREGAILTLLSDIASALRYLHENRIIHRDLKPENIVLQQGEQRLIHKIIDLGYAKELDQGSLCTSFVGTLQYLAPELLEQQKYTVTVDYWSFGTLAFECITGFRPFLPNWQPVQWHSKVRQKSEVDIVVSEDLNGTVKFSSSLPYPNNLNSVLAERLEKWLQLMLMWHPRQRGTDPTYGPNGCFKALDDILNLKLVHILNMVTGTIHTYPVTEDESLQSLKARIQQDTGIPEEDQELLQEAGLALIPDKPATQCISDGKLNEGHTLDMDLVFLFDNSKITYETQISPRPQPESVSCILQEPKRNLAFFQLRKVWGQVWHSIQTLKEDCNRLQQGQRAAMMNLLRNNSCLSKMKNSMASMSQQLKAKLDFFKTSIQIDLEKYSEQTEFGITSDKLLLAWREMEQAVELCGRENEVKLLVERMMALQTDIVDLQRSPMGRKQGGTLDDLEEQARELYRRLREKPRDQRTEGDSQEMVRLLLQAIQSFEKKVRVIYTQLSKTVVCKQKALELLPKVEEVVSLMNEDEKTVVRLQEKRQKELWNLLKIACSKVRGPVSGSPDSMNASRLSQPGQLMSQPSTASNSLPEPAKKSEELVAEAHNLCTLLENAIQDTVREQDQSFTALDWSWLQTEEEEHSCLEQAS
Assay: Inhibition of IKKbeta (unknown origin)

| SMILES | IC50 [µM] |
| --- | --- |
| O=C(/C=C/c1nc2ccccc2[nH]1)c1c(-c2ccccc2)c2cc(Br)ccc2[nH]c1=O | 1.64 to 44.5 |
| Cc1ccc2[nH]c(/C=C/C(=O)c3c(-c4ccccc4)c4cc(Cl)ccc4[nH]c3=O)nc2c1 | 1.64 to 44.5 |
| O=C(/C=C/c1nc2cc(F)ccc2[nH]1)c1c(-c2ccc(F)cc2)c2cc(F)ccc2[nH]c1=O | 1.64 to 44.5 |
| Cc1ccc2[nH]c(=O)c(C(=O)/C=C/c3nc4ccccc4[nH]3)c(-c3ccccc3)c2c1 | 1.64 to 44.5 |
| O=C(/C=C/c1nc2cc(F)ccc2[nH]1)c1c(-c2ccccc2)c2cc(Cl)ccc2[nH]c1=O | 1.64 to 44.5 |
| O=C(/C=C/c1nc2cc(F)c(F)cc2[nH]1)c1c(-c2ccc(F)cc2)c2cc(F)ccc2[nH]c1=O | 1.64 to 44.5 |
| Cn1c(=O)c(C(=O)/C=C/c2nc3cc(F)ccc3[nH]2)c(-c2ccccc2)c2cc(Cl)ccc21 | 1.64 to 44.5 |
